Here are results for twelve molecules from PubChem BioAssay (NCI).

Among the test systems are K-562 leukemia; HOP-92 NSCLC; OVCAR-8 ovarian; HCT-116 colon; MALME-3M melanoma; HT29 colon; SW-620 colon; KM12 colon; MDA-N; HCC-2998 colon; 786-0 renal; UACC-257 melanoma; SF-268 CNS; NCI/ADR-RES ovarian; OVCAR-5 ovarian; SF-539 CNS; LOX IMVI melanoma; SF-295 CNS; RPMI-8226 leukemia.
Holding throughout (assay): inhibition of tumour cell growth, NCI panel, 48 h

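Protocol summary: plate cells (96-well), add compound at 5 concentrations, incubate 48 h, interpolate endpoints linearly. TGI: total growth inhibition.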

`O=C(N[C@@H](c1ccccc1)[C@@H](O)C(=O)OCc1ccc([N+](=O)[O-])cc1)c1ccccc1`: the TGI in the experiment with K-562 leukemia, with HOP-92 NSCLC, in the experiment with OVCAR-8 ovarian, in the experiment with HCT-116 colon, in the experiment with MALME-3M melanoma and in the experiment with HT29 colon was above 100 µM throughout. Moreover, the TGI in the experiment with SW-620 colon, in the experiment with KM12 colon, with MDA-N, with HCC-2998 colon, with 786-0 renal and with UACC-257 melanoma was above 100 µM in each case. In addition, the TGI in the experiment with SF-268 CNS, with NCI/ADR-RES ovarian, in the experiment with OVCAR-5 ovarian, in the experiment with SF-539 CNS and in the experiment on LOX IMVI melanoma was above 100 µM in each case.

In the case of `COC(=O)C1(C(=O)OC)C/C(C)=C(/C)SCCCS1`, the TGI in the experiment on K-562 leukemia, in the experiment with HOP-92 NSCLC, with OVCAR-8 ovarian, in the experiment with HCT-116 colon, with MALME-3M melanoma and in the experiment on HT29 colon was above 100 µM throughout. Further, the TGI in the experiment with SW-620 colon, with KM12 colon, in the experiment on MDA-N, in the experiment on HCC-2998 colon, with 786-0 renal and in the experiment on UACC-257 melanoma was above 100 µM in each case. In addition, the TGI in the experiment with SF-268 CNS, in the experiment with NCI/ADR-RES ovarian, in the experiment with OVCAR-5 ovarian, in the experiment with SF-539 CNS, with LOX IMVI melanoma and in the experiment with SF-295 CNS was above 100 µM in each case.

Turning to `CCC(=O)O[C@H]1CC[C@H]2[C@@H]3CCC4=C/C(=N/OC(=O)c5cccc6c(=O)c7ccccc7[nH]c56)CC[C@]4(C)[C@H]3CC[C@]12C`, the TGI is 47 µM in the experiment with K-562 leukemia; 74.5 µM in the experiment on HOP-92 NSCLC; above 100 µM with OVCAR-8 ovarian; above 100 µM in the experiment with HT29 colon; above 100 µM in the experiment with SW-620 colon; 55.1 µM in the experiment on KM12 colon. Also, the TGI with MDA-N was above 100 µM; in the experiment with HCC-2998 colon it was 41.2 µM; in the experiment with 786-0 renal, 36.5 µM; in the experiment with UACC-257 melanoma, above 100 µM; with SF-268 CNS, above 100 µM; in the experiment on NCI/ADR-RES ovarian, above 100 µM. In addition, the TGI with OVCAR-5 ovarian was above 100 µM; in the experiment with SF-539 CNS it was 39.3 µM; with RPMI-8226 leukemia, 54.7 µM; in the experiment with LOX IMVI melanoma, 51.4 µM; in the experiment with SF-295 CNS, above 100 µM.

For the molecule `Cc1cc(C2CC(O)C(CO)O2)c(F)cc1F` (configuration not stated), the TGI in the experiment on K-562 leukemia, with HOP-92 NSCLC, with OVCAR-8 ovarian, with HCT-116 colon, in the experiment with MALME-3M melanoma and in the experiment on HT29 colon was above 100 µM in each case. Besides, the TGI in the experiment on SW-620 colon, in the experiment with KM12 colon, in the experiment on MDA-N, with HCC-2998 colon, in the experiment with 786-0 renal and in the experiment with UACC-257 melanoma was above 100 µM each time. Moreover, the TGI in the experiment on SF-268 CNS, in the experiment with NCI/ADR-RES ovarian, in the experiment on OVCAR-5 ovarian, in the experiment with SF-539 CNS, with LOX IMVI melanoma and with SF-295 CNS was above 100 µM throughout.

Regarding `COc1ccc2[nH]c3c(c2c1)CC(=S)N1CCCC(CC3=O)C1` (configuration not stated), the TGI with HOP-92 NSCLC, in the experiment with OVCAR-8 ovarian, in the experiment with HCT-116 colon, with MALME-3M melanoma, in the experiment with HT29 colon and with SW-620 colon was above 100 µM throughout. The TGI with KM12 colon, in the experiment with MDA-N, in the experiment on HCC-2998 colon, with 786-0 renal, in the experiment with UACC-257 melanoma and in the experiment on SF-268 CNS was above 100 µM each time. Besides, the TGI in the experiment on NCI/ADR-RES ovarian, in the experiment on OVCAR-5 ovarian, in the experiment with RPMI-8226 leukemia and in the experiment with SF-295 CNS was above 100 µM in each case.

`O=C(O)c1nc2ccc(C(F)(F)F)cc2nc1NCc1ccc(F)cc1`: the TGI in the experiment with K-562 leukemia was 55.6 µM; in the experiment on HOP-92 NSCLC it was 45.3 µM; in the experiment with OVCAR-8 ovarian it was 55.7 µM; in the experiment on HCT-116 colon it was 29.4 µM; in the experiment with SW-620 colon it was above 100 µM; in the experiment with KM12 colon, above 100 µM. Besides, the TGI in the experiment with MDA-N was 76.9 µM; in the experiment with HCC-2998 colon, 65.6 µM; in the experiment with 786-0 renal it was 28 µM; with UACC-257 melanoma, 76.2 µM; with NCI/ADR-RES ovarian, above 100 µM; with OVCAR-5 ovarian, 42.5 µM. The TGI is 43.5 µM in the experiment with SF-539 CNS, above 100 µM with RPMI-8226 leukemia, 36.5 µM in the experiment with LOX IMVI melanoma and 81.1 µM in the experiment with SF-295 CNS.

In the case of `O=C1c2cccc3cccc(c23)C2NCCCN12` (configuration not stated), the TGI in the experiment on K-562 leukemia, in the experiment on HOP-92 NSCLC, in the experiment on OVCAR-8 ovarian, in the experiment with HCT-116 colon, with MALME-3M melanoma and in the experiment with HT29 colon was above 100 µM each time. The TGI in the experiment on SW-620 colon, with KM12 colon, in the experiment on MDA-N, in the experiment on HCC-2998 colon, with 786-0 renal and in the experiment with UACC-257 melanoma was above 100 µM each time. Further, the TGI with SF-268 CNS, in the experiment on NCI/ADR-RES ovarian, in the experiment on OVCAR-5 ovarian, in the experiment on LOX IMVI melanoma and in the experiment with SF-295 CNS was above 100 µM in each case.

For the molecule `O=C(O/C=C\OC1CCCC1(c1ccccc1)c1ccccc1)c1ccccc1` (configuration not stated), the TGI with K-562 leukemia was above 36 µM; in the experiment on HOP-92 NSCLC, 4.97 µM; in the experiment with OVCAR-8 ovarian it was 12.1 µM; in the experiment on HCT-116 colon, 6.52 µM; with HT29 colon it was 13.8 µM; with SW-620 colon it was 11.3 µM. For the same molecule, the TGI is 33.1 µM with KM12 colon; 9.32 µM in the experiment with MDA-N; above 49.4 µM in the experiment with HCC-2998 colon; 14 µM with 786-0 renal; 33 µM in the experiment with UACC-257 melanoma; 14.1 µM in the experiment with SF-268 CNS. In addition, the TGI in the experiment with NCI/ADR-RES ovarian is 8.99 µM; in the experiment on OVCAR-5 ovarian, 31.1 µM; with SF-539 CNS, 13.5 µM; in the experiment on RPMI-8226 leukemia, 6.44 µM; with LOX IMVI melanoma, 3.22 µM; in the experiment with SF-295 CNS, 34.9 µM.

Take `CCOC(=O)c1nc2ccc(C(F)(F)F)cc2[nH]c1=O`: the TGI in the experiment on K-562 leukemia, in the experiment on HOP-92 NSCLC, with OVCAR-8 ovarian, in the experiment with HCT-116 colon, in the experiment with HT29 colon and with SW-620 colon was above 100 µM each time. Moreover, the TGI in the experiment on KM12 colon, with MDA-N, in the experiment on HCC-2998 colon, in the experiment with 786-0 renal, in the experiment on UACC-257 melanoma and in the experiment with SF-268 CNS was above 100 µM each time. Besides, the TGI with NCI/ADR-RES ovarian, with OVCAR-5 ovarian, in the experiment on SF-539 CNS, in the experiment with RPMI-8226 leukemia, with LOX IMVI melanoma and in the experiment on SF-295 CNS was above 100 µM each time.

On to `O=C(c1cccs1)N(C(=O)N1CCN(c2ccccc2)CC1)S(=O)(=O)c1ccccc1`, for which the TGI with K-562 leukemia is 80.5 µM; with HOP-92 NSCLC, 55.6 µM; in the experiment on OVCAR-8 ovarian, 39.5 µM; in the experiment on HCT-116 colon, 38.6 µM; with MALME-3M melanoma, 42.1 µM; in the experiment on HT29 colon it was above 100 µM. Besides, the TGI with SW-620 colon was above 100 µM; in the experiment on KM12 colon it was above 100 µM; in the experiment with MDA-N it was 41.8 µM; in the experiment with HCC-2998 colon, above 100 µM; with 786-0 renal, 59.4 µM; with UACC-257 melanoma it was 69.9 µM. Moreover, the TGI with SF-268 CNS is 80.6 µM; with NCI/ADR-RES ovarian, 57.2 µM; in the experiment on OVCAR-5 ovarian it was 55.7 µM; in the experiment on SF-539 CNS, 35.2 µM; in the experiment with SF-295 CNS it was above 100 µM.

As for `c1ccc(NN=C(c2ccccn2)c2ccccn2)nc1`, the TGI is above 100 µM with K-562 leukemia; above 100 µM in the experiment on HOP-92 NSCLC; above 100 µM in the experiment on OVCAR-8 ovarian; above 100 µM with HCT-116 colon; 26.1 µM with MALME-3M melanoma; above 100 µM with HT29 colon. Also, the TGI in the experiment on SW-620 colon, in the experiment on KM12 colon, with MDA-N, in the experiment on HCC-2998 colon, with 786-0 renal and in the experiment on UACC-257 melanoma was above 100 µM throughout. Besides, the TGI was above 100 µM in the experiment with SF-268 CNS; 5.05 µM in the experiment with NCI/ADR-RES ovarian; above 100 µM in the experiment with OVCAR-5 ovarian; above 47.5 µM in the experiment with SF-539 CNS; above 100 µM in the experiment on LOX IMVI melanoma; above 100 µM in the experiment on SF-295 CNS.

As for `CN1C(=O)c2ccccc2OC12C=Cc1ccc(O)cc1O2` (configuration not stated), the TGI was above 100 µM in the experiment on K-562 leukemia; 80.9 µM in the experiment with HOP-92 NSCLC; 37.4 µM in the experiment with OVCAR-8 ovarian; 81 µM in the experiment on HCT-116 colon; 57.2 µM in the experiment with HT29 colon; above 100 µM with SW-620 colon. Further, the TGI is 77.5 µM with KM12 colon; above 100 µM with MDA-N; 50.8 µM in the experiment on HCC-2998 colon; above 100 µM with 786-0 renal; 43.6 µM in the experiment with UACC-257 melanoma; above 100 µM in the experiment with SF-268 CNS. Moreover, the TGI with NCI/ADR-RES ovarian was 40.4 µM; with OVCAR-5 ovarian, above 100 µM; with RPMI-8226 leukemia it was above 100 µM; with LOX IMVI melanoma it was 26.8 µM; in the experiment on SF-295 CNS, above 100 µM.
